According to US20200270309A1, “MALEIMIDE GROUP-MODIFIED ANGIOGENESIS INHIBITOR HM-1 AND USE THEREOF” (NANJING ANJI BIOLOGICAL TECHNOLOGY CO., LTD, priority 2017, published 2020):
Marks after values point to notes of the source that are not given here. Each block holds one molecule with its values, some of them ahead of it. Peptide text beside a SMILES is read from it. * marks the point of attachment. X65 = O=C1C=CC(=O)N1c1cccc(CCCCCCCCCCCCC(=O)*)c1; X54 = O=C1C=CC(=O)N1c1cccc(CCCCCCC(=O)*)c1

Tests used:
HUVECs = assay: Transwell migration inhibition on HUVECs; assay type: cell-based, human; details: for Inhibition rate (%): HUVEC migration vs blank control; for Cell migration number (Mean ± SD): HUVECs, transwell, 24 h
[1] = test system: human retinal capillary endothelial cells (HRCECs); assay: MTT proliferation inhibition on HRCECs; assay type: cell-based; details: 48 h; for A570 nm-A630 nm: mean±SD
Summary of the method: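 HRCECs seeded at 3.0×10^4 cells/mL, adhered overnight, then exposed to polypeptide for 48 h at 37 °C, 5% CO2. MTT added 4 h, formazan dissolved in DMSO, absorbance 570/630 nm; PIR (%) = 1 − treated/negative control, mean±SD of three independent runs.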

[2] = Half-lives and pharmacokinetic parameters of polypeptides vs HM-1; details: in vivo; for half-life: T1/2β (half-life)
[3] = test system: carrageenan-induced toe swelling; assay: Carrageenan-induced toe swelling in rats; assay type: in vivo; details: SD rats; for Swelling degree 1 h: 1 h after carrageenan; for Swelling degree 3 h: 3 h after carrageenan; for Swelling degree 5 h: 5 h after carrageenan; for Swelling degree 7 h: 7 h after carrageenan
Summary of the method: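 Paw swelling, in mL, is the post-inflammation minus pre-inflammation volume of the right hind foot, read as overflow liquid when immersed to a pen-marked joint. Treatment was daily injection over 3 d; model group received saline of the same volume.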

[4] = test system: corneal neovascularization; assay: Corneal neovascularization induced by alkali burn in BALB/c mice; assay type: in vivo; set-up: Inhibition rate (corneal neovascularization): concentration or dose not given beside the values; details: day 14 after alkali burn, vitreous injection once a day for 1 week
[5] = test system: xylene-induced ear swelling; assay: Xylene-induced mouse ear swelling; assay type: in vivo; details: Kunming mice, injected once a day for 5 days; for Swelling degree / Swelling degree (mg): right minus left ear piece weight 2 h after xylene; for Inhibition rate (%): xylene-induced ear swelling
Summary of the method: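 Ear pieces punched and weighed 2 h after xylene (0.05 mL, right ear only; left ear as normal) gave swelling degree (right − left weight) and swelling rate (degree/left weight ×100%). Kunming mice received injections daily for 5 consecutive days, xylene applied 1 h after final dose.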

[6] = test system: collagen-induced arthritis; assay: Mouse collagen-induced arthritis (CIA) animal model; assay type: in vivo; details: DBA/1 mice CIA model, dose 4.0 mg/kg, subcutaneous from day 30, n=10; for Clinical score: highest score 16
[7] = test system: choroidal neovascularization; assay: Choroidal neovascularization in rats (laser photocoagulation, FFA); assay type: in vivo; details: BN rats
Summary of the method: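 Male BN rats aged 6-8 weeks were given 8 krypton-laser spots around the optic disc (647.1 nm, 350 mW, 50 μm, 0.05 s). Once the model was confirmed, groups of 5 got daily intravitreal compound at 0.05 μM or saline for 1 week. FFA followed at 3, 7, 14 and 28 days after dosing.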

[8] = day 3 after administration, total light spot number was 297, 0.05 μM in the vitreous chamber once a day for 1 week
[9] = day 7 after administration, total light spot number was 186, 0.05 μM in the vitreous chamber once a day for 1 week
[10] = day 14 after administration, total light spot number was 137, 0.05 μM in the vitreous chamber once a day for 1 week
[11] = day 28 after administration, total light spot number was 69, 0.05 μM in the vitreous chamber once a day for 1 week

AUC(0-inf) [2]: 28200 ± 8090 ng·h/mL
MRT inf [2]: 50.4 ± 10.1 h
clearance [2]: 0.592 mL/min/kg
half-life [2]: 34.9 ± 0.27 h
Structure (SMILES): C[C@H](NC(=O)CNC(=O)[C@H](CCCNC(=N)N)NC(=O)CCCCCCCCCCCCc1cccc(N2C(=O)C=CC2=O)c1)C(=O)N[C@@H](CC(=O)O)C(=O)N[C@@H](CCCNC(=N)N)C(=O)N[C@@H](C)C(=O)NCC(=O)NCC(=O)NCC(=O)NCC(=O)N[C@@H](CCCNC(=N)N)C(=O)NCC(=O)N[C@@H](CC(=O)O)C(=O)O [X36] (X65-RGADRAGGGGRGD-OH)
Inhibition rate (%) (HUVECs; dose 0.05 μM): 52.07%
Inhibition rate (%) (HUVECs; dose 0.1 μM): 56.76%
Inhibition rate (%) (HUVECs; dose 0.2 μM): 57.92%
Cell migration number (Mean ± SD) (HUVECs; dose 0.05 μM): 513.79 ± 55.46
Cell migration number (Mean ± SD) (HUVECs; dose 0.1 μM): 463.47 ± 50.27
Cell migration number (Mean ± SD) (HUVECs; dose 0.2 μM): 451.01 ± 43.85
Inhibition rate (%) ([1]; dose 0.05 μM): 55.25%*
A570 nm-A630 nm ([1]; dose 0.05 μM): 0.5915 ± 0.05135
Inhibition rate (%) ([1]; dose 0.1 μM): 60.38%**
A570 nm-A630 nm ([1]; dose 0.1 μM): 0.5237 ± 0.03194
Inhibition rate (%) ([1]; dose 0.2 μM): 64.71%*
A570 nm-A630 nm ([1]; dose 0.2 μM): 0.4664 ± 0.03733
Swelling degree 1 h ([3]; 2.0 mg/kg once a day for 3 d): 0.29 ± 0.17 mg
Swelling degree 3 h ([3]; 2.0 mg/kg once a day for 3 d): 0.34 ± 0.18 mg
Swelling degree 5 h ([3]; 2.0 mg/kg once a day for 3 d): 0.43 ± 0.13 mg
Swelling degree 7 h ([3]; 2.0 mg/kg once a day for 3 d): 0.32 ± 0.15 mg
Swelling degree 1 h ([3]; 4.0 mg/kg once a day for 3 d): 0.23 ± 0.15 mg
Swelling degree 3 h ([3]; 4.0 mg/kg once a day for 3 d): 0.33 ± 0.13 mg
Swelling degree 5 h ([3]; 4.0 mg/kg once a day for 3 d): 0.35 ± 0.12 mg
Swelling degree 7 h ([3]; 4.0 mg/kg once a day for 3 d): 0.32 ± 0.17 mg
Inhibition rate (corneal neovascularization) [4]: 45.52%
MVD (corneal microvessel density) [4]: 36.63 ± 5.284
Swelling degree ([5]; dose 2 mg/kg): 5.37 ± 0.84 mg
Inhibition rate (%) ([5]; dose 2 mg/kg): 13.80%
Swelling degree ([5]; dose 4 mg/kg): 5.37 ± 0.21 mg
Inhibition rate (%) ([5]; dose 4 mg/kg): 13.80%
Swelling degree (mg) ([5]; dose 8 mg/kg): 4.7 ± 0.97* mg
Inhibition rate (%) ([5]; dose 8 mg/kg): 24.56%
Joint swelling degree (mm) [6]: 0.74 ± 0.14 mm
Left and right paw swelling degree (mm) [6]: 0.77 ± 0.13 mm
Clinical score [6]: 8.86 ± 1.23
CNV Incidence (%) [7, 8]: 50.51%
Leakage Light spot number [7, 8]: 150
CNV Incidence (%) [7, 9]: 49.46%
Leakage Light spot number [7, 9]: 92
CNV Incidence (%) [7, 10]: 40.15%
Leakage Light spot number [7, 10]: 55
CNV Incidence (%) [7, 11]: 43.48%
Leakage Light spot number [7, 11]: 30

AUC(0-inf) [2]: 28300 ± 6880 ng·h/mL
MRT inf [2]: 50.8 ± 10.3 h
clearance [2]: 0.588 mL/min/kg
half-life [2]: 35.2 ± 0.37 h
Structure (SMILES): C[C@H](NC(=O)CNC(=O)[C@H](CCCNC(=N)N)NC(=O)CCCCCCc1cccc(N2C(=O)C=CC2=O)c1)C(=O)N[C@@H](CC(=O)O)C(=O)N[C@@H](CCCNC(=N)N)C(=O)N[C@@H](C)C(=O)NCC(=O)NCC(=O)NCC(=O)NCC(=O)N[C@@H](CCCNC(=N)N)C(=O)NCC(=O)N[C@@H](CC(=O)O)C(=O)O [X30] (X54-RGADRAGGGGRGD-OH)
Inhibition rate (%) (HUVECs; dose 0.05 μM): 41.12%
Inhibition rate (%) (HUVECs; dose 0.1 μM): 53.55%
Inhibition rate (%) (HUVECs; dose 0.2 μM): 53.58%
Cell migration number (Mean ± SD) (HUVECs; dose 0.05 μM): 631.10 ± 64.04
Cell migration number (Mean ± SD) (HUVECs; dose 0.1 μM): 497.88 ± 65.38
Cell migration number (Mean ± SD) (HUVECs; dose 0.2 μM): 497.56 ± 68.24
Inhibition rate (%) ([1]; dose 0.05 μM): 42.46%*
A570 nm-A630 nm ([1]; dose 0.05 μM): 0.7605 ± 0.00513
Inhibition rate (%) ([1]; dose 0.1 μM): 60.14%**
A570 nm-A630 nm ([1]; dose 0.1 μM): 0.5268 ± 0.06831
Inhibition rate (%) ([1]; dose 0.2 μM): 65.82%*
A570 nm-A630 nm ([1]; dose 0.2 μM): 0.4517 ± 0.03378
Swelling degree 1 h ([3]; 2.0 mg/kg once a day for 3 d): 0.26 ± 0.15 mg
Swelling degree 3 h ([3]; 2.0 mg/kg once a day for 3 d): 0.36 ± 0.18 mg
Swelling degree 5 h ([3]; 2.0 mg/kg once a day for 3 d): 0.40 ± 0.16 mg
Swelling degree 7 h ([3]; 2.0 mg/kg once a day for 3 d): 0.35 ± 0.11 mg
Swelling degree 1 h ([3]; 4.0 mg/kg once a day for 3 d): 0.25 ± 0.19 mg
Swelling degree 3 h ([3]; 4.0 mg/kg once a day for 3 d): 0.33 ± 0.13 mg
Swelling degree 5 h ([3]; 4.0 mg/kg once a day for 3 d): 0.39 ± 0.18 mg
Swelling degree 7 h ([3]; 4.0 mg/kg once a day for 3 d): 0.34 ± 0.15 mg
Inhibition rate (corneal neovascularization) [4]: 47.13%
MVD (corneal microvessel density) [4]: 35.55 ± 5.717
Swelling degree ([5]; dose 2 mg/kg): 5.19 ± 0.57 mg
Inhibition rate (%) ([5]; dose 2 mg/kg): 16.69%
Swelling degree ([5]; dose 4 mg/kg): 5.07 ± 0.49 mg
Inhibition rate (%) ([5]; dose 4 mg/kg): 18.62%
Swelling degree (mg) ([5]; dose 8 mg/kg): 3.77 ± 0.38** mg
Inhibition rate (%) ([5]; dose 8 mg/kg): 39.49%
Joint swelling degree (mm) [6]: 0.83 ± 0.16 mm
Left and right paw swelling degree (mm) [6]: 0.79 ± 0.16 mm
Clinical score [6]: 8.73 ± 1.29
CNV Incidence (%) [7, 8]: 51.85%
Leakage Light spot number [7, 8]: 154
CNV Incidence (%) [7, 9]: 48.92%
Leakage Light spot number [7, 9]: 91
CNV Incidence (%) [7, 10]: 45.99%
Leakage Light spot number [7, 10]: 63
CNV Incidence (%) [7, 11]: 40.58%
Leakage Light spot number [7, 11]: 28
